Patent US10392391B2 (Vertex Pharmaceuticals Incorporated, priority 2012, dated 2019)
Where two headings read alike, the source gives them in different places.

Target: ATR kinase (full-length ATR) (Homo sapiens (Human), UniProt Q13535)
Test: ATR inhibition assay (radioactive-phosphate incorporation)
Format: biochemical
How it was run: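 Ki(app) was fitted by non-linear regression to background-corrected initial rates. Full-length ATR (5 nM) phosphorylated 800 μM peptide using 10 μM [γ-33P]ATP at 25° C in Tris/HCl pH 7.5 buffer with MgCl2, DTT and 7% DMSO. After 10-minute compound pre-incubation and 24-hour reaction, phosphocellulose filters were scintillation counted.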

[1] = Ki(app), 5 nM full-length ATR, 10 μM ATP, 25° C.

Sequence of ATR kinase (full-length ATR) (Q13535 whole entry): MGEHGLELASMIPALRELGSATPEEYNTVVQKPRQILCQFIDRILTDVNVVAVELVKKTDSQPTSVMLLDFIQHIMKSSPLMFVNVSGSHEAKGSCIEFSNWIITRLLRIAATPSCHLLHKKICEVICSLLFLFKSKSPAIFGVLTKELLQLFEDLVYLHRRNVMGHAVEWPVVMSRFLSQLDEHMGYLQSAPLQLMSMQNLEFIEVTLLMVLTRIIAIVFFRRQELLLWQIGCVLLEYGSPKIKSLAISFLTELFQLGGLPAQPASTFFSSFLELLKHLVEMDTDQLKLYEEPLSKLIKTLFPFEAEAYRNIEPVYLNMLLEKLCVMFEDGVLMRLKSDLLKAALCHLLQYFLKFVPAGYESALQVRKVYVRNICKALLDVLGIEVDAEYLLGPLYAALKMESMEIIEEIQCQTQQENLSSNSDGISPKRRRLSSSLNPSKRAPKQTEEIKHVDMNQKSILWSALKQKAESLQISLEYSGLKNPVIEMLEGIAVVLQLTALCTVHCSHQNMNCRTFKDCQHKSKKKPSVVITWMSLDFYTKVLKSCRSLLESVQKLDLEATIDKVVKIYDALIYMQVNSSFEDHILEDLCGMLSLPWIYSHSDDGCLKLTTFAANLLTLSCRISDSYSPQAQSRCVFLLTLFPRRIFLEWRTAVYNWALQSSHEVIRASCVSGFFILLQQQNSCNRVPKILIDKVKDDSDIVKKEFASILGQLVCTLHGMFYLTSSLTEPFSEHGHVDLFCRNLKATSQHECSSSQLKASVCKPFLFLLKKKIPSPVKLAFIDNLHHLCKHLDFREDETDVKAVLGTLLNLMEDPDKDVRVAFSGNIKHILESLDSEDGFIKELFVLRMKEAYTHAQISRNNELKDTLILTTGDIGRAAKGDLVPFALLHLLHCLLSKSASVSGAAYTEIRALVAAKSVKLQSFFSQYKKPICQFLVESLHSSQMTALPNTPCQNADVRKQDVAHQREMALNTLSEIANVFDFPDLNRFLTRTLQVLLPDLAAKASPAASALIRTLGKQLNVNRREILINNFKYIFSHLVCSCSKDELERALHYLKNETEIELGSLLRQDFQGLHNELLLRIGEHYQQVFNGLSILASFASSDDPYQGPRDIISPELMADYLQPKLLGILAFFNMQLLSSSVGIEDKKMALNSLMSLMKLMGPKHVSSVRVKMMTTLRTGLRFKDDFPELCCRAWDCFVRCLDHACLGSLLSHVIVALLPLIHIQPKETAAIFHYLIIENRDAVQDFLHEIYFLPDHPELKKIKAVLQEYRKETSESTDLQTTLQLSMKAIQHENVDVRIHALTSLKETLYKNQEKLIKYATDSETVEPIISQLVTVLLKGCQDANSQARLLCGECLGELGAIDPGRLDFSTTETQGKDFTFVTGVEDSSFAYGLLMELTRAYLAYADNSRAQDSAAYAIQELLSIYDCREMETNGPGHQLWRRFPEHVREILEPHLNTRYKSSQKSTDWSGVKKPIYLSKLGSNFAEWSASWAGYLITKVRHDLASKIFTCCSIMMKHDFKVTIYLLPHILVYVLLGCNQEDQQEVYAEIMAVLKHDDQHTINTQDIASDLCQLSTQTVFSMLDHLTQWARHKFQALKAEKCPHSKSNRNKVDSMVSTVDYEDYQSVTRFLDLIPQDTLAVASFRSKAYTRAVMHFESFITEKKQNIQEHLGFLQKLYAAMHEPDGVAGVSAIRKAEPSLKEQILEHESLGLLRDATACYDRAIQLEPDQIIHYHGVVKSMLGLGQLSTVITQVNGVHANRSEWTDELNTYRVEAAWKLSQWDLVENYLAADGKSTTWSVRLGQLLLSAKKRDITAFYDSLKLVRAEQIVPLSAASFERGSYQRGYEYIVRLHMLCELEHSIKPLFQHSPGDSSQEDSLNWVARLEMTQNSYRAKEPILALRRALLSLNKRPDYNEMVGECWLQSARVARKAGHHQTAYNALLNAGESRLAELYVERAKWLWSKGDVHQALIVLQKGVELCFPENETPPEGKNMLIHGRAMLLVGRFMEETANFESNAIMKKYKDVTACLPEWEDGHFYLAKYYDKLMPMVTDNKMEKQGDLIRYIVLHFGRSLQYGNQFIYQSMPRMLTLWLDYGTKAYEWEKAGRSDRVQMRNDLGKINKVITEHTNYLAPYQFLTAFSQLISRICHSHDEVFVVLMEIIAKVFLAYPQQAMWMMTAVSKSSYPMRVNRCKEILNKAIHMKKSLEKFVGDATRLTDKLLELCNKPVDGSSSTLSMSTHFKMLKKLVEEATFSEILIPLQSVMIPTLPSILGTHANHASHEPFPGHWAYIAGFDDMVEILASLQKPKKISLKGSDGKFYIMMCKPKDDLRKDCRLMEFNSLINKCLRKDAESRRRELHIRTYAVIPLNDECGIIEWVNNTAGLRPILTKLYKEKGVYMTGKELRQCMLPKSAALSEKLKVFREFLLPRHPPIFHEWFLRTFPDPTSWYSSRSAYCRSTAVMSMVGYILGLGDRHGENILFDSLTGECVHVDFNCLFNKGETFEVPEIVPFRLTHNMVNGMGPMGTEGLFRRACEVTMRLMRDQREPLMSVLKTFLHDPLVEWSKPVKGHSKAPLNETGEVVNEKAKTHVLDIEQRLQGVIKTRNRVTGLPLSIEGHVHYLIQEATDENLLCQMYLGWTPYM

Structure (SMILES)	Ki [1] [nM]	Ki [nM]
Cc1nccn1-c1ccncc1NC(=O)c1c(N)nn2cc(F)cnc12 [I-N-28, 2-amino-6-fluoro-N-(4-(2-methyl-1H-imidazol-1-yl)pyridin-3-yl)pyrazolo[1,5-a]pyrimidine-3-carboxamide]	10 to 1000	–
Nc1nn2cc(Cl)cnc2c1C(=O)Nc1cnccc1N1CCN2CCC[C@H]2C1 [I-N-71, (S)-2-amino-6-chloro-N-(4-(hexahydropyrrolo[1,2-a]pyrazin-2(1H)-yl)pyridin-3-yl)pyrazolo[1,5-a]pyrimidine-3-carboxamide]	10 to 1000	–
Nc1nn2cc(F)cnc2c1C(=O)Nc1cnccc1O[C@H]1CCCN(C2COC2)C1 [I-O-9, (S)-2-amino-6-fluoro-N-(4-((1-(oxetan-3-yl)piperidin-3-yl)oxy)pyridin-3-yl)pyrazolo[1,5-a]pyrimidine-3-carboxamide]	10 to 1000	–
Nc1nn2cc(F)cnc2c1C(=O)Nc1cnccc1N1CCC(C(=O)N2CC3(COC3)C2)CC1 [I-G-88, N-(4-(4-(2-oxa-6-azaspiro[3.3]heptane-6-carbonyl)piperidin-1-yl)pyridin-3-yl)-2-amino-6-fluoropyrazolo[1,5-a]pyrimidine-3-carboxamide]	10 to 1000	–
CC1(N2CCN(c3ccncc3NC(=O)c3c(N)nn4cc(Cl)cnc34)CC2)COC1 [I-N-25, 2-amino-6-chloro-N-(4-(4-(3-methyloxetan-3-yl)piperazin-1-yl)pyridin-3-yl)pyrazolo[1,5-a]pyrimidine-3-carboxamide]	10 to 1000	–
CS(=O)(=O)C1CCN(c2c(Cl)cncc2NC(=O)c2c(N)nn3cc(F)cnc23)C1 (stereo not shown) [I-N-287, 2-amino-N-(5-chloro-4-(3-(methylsulfonyl)pyrrolidin-1-yl)pyridin-3-yl)-6-fluoropyrazolo[1,5-a]pyrimidine-3-carboxamide]	10 to 1000	–
CN1CCC(NC(=O)C2CCN(c3c(F)cncc3NC(=O)c3c(N)nn4cc(F)cnc34)CC2)CC1 [I-G-20, 2-amino-6-fluoro-N-(5-fluoro-4-(4-((1-methylpiperidin-4-yl)carbamoyl)piperidin-1-yl)pyridin-3-yl)pyrazolo[1,5-a]pyrimidine-3-carboxamide]	10 to 1000	–
N#CCc1cnc2c(C(=O)Nc3cnccc3N3CCCCC3)c(N)nn2c1 [I-N-84, 2-amino-6-(cyanomethyl)-N-(4-(piperidin-1-yl)pyridin-3-yl)pyrazolo[1,5-a]pyrimidine-3-carboxamide]	< 10	–
Cc1nc(F)ccc1-c1ccncc1NC(=O)c1c(N)nn2cc(F)cnc12 [I-C-34, 2-amino-6-fluoro-N-(6-fluoro-2-methyl-[3,4′-bipyridin]-3′-yl)pyrazolo[1,5-a]pyrimidine-3-carboxamide]	10 to 1000	–
CN1CCN(C(=O)C2CCN(c3c(F)cncc3NC(=O)c3c(N)nn4cc(F)cnc34)CC2)C2CC21 (stereo not shown) [I-G-65, 2-amino-6-fluoro-N-(5-fluoro-4-(4-(5-methyl-2,5-diazabicyclo[4.1.0]heptane-2-carbonyl)piperidin-1-yl)pyridin-3-yl)pyrazolo[1,5-a]pyrimidine-3-carboxamide]	10 to 1000	–
COC1(C)CN(C(=O)C2CCN(c3ccncc3NC(=O)c3c(N)nn4cc(F)cnc34)CC2)C1 [I-G-79, 2-amino-6-fluoro-N-(4-(4-(3-methoxy-3-methylazetidine-1-carbonyl)piperidin-1-yl)pyridin-3-yl)pyrazolo[1,5-a]pyrimidine-3-carboxamide]	10 to 1000	–
CN1CCN(C2CCN(c3c(F)cncc3NC(=O)c3c(N)nn4cc(F)cnc34)CC2)C(=O)C1 [I-N-151, 2-amino-6-fluoro-N-(5-fluoro-4-(4-(4-methyl-2-oxopiperazin-1-yl)piperidin-1-yl)pyridin-3-yl)pyrazolo[1,5-a]pyrimidine-3-carboxamide]	–	1000 to 5000
CN1CCC[C@H]1COc1ccncc1NC(=O)c1c(N)nn2cc(Cl)cnc12 [I-O-50, (S)-2-amino-6-chloro-N-(4-((1-methylpyrrolidin-2-yl)methoxy)pyridin-3-yl)pyrazolo[1,5-a]pyrimidine-3-carboxamide]	10 to 1000	–
CN1CCN(c2c(F)cncc2NC(=O)c2c(N)nn3cc(F)cnc23)CC1=O [I-N-212, 2-amino-6-fluoro-N-(5-fluoro-4-(4-methyl-3-oxopiperazin-1-yl)pyridin-3-yl)pyrazolo[1,5-a]pyrimidine-3-carboxamide]	10 to 1000	–
Nc1nn2cc(F)cnc2c1C(=O)Nc1cncc(F)c1N1CCC(OCCN2CCCC2)CC1 [I-N-167, 2-amino-6-fluoro-N-(5-fluoro-4-(4-(2-(pyrrolidin-1-yl)ethoxy)piperidin-1-yl)pyridin-3-yl)pyrazolo[1,5-a]pyrimidine-3-carboxamide]	10 to 1000	–
N#CCc1cnc2c(C(=O)Nc3cnccc3OCCO)c(N)nn2c1 [I-O-33, 2-amino-6-(cyanomethyl)-N-(4-(2-hydroxyethoxy)pyridin-3-yl)pyrazolo[1,5-a]pyrimidine-3-carboxamide]	< 10	–
Cc1cncc(NC(=O)c2c(N)nn3cc(F)cnc23)c1-n1nccc1C [I-N-237]	10 to 1000	–
N#CC1(C(=O)N2CCC(c3ccncc3NC(=O)c3c(N)nn4cc(F)cnc34)CC2)CC1 [I-C-71, 2-amino-N-(4-(1-(1-cyanocyclopropanecarbonyl)piperidin-4-yl)pyridin-3-yl)-6-fluoropyrazolo[1,5-a]pyrimidine-3-carboxamide]	10 to 1000	–
CN(C)C(=O)C1CCN(c2c(F)cncc2NC(=O)c2c(N)nn3cc(F)cnc23)CC1 [I-G-29, 2-amino-N-(4-(4-(dimethylcarbamoyl)piperidin-1-yl)-5-fluoropyridin-3-yl)-6-fluoropyrazolo[1,5-a]pyrimidine-3-carboxamide]	10 to 1000	–
Nc1nn2cc(Cl)cnc2c1C(=O)Nc1cnccc1N1CCC(N2CCn3ccnc3C2)CC1 [I-N-102, 2-amino-6-chloro-N-(4-(4-(5,6-dihydroimidazo[1,2-a]pyrazin-7(8H)-yl)piperidin-1-yl)pyridin-3-yl)pyrazolo[1,5-a]pyrimidine-3-carboxamide]	10 to 1000	–
Nc1nn2cc(Cl)cnc2c1C(=O)Nc1cnccc1N1CC[S+]([O-])CC1 [I-N-68, 2-amino-6-chloro-N-(4-(1-oxidothiomorpholino)pyridin-3-yl)pyrazolo[1,5-a]pyrimidine-3-carboxamide]	10 to 1000	–
CN1CC2(CCC1=O)CCN(c1ccncc1NC(=O)c1c(N)nn3cc(F)cnc13)CC2 [I-N-231, 2-amino-6-fluoro-N-(4-(2-methyl-3-oxo-2,9-diazaspiro[5.5]undecan-9-yl)pyridin-3-yl)pyrazolo[1,5-a]pyrimidine-3-carboxamide]	10 to 1000	–
Nc1nn2cc(F)cnc2c1C(=O)Nc1cncc(F)c1N1CCN(C(=O)C2COC2)CC1 [I-N-278, 2-amino-6-fluoro-N-(5-fluoro-4-(4-(oxetane-3-carbonyl)piperazin-1-yl)pyridin-3-yl)pyrazolo[1,5-a]pyrimidine-3-carboxamide]	10 to 1000	–
Nc1nn2cc(F)cnc2c1C(=O)Nc1cnccc1N1CCN(CC(F)(F)F)CC1 [I-N-20, 2-amino-6-fluoro-N-(4-(4-(2,2,2-trifluoroethyl)piperazin-1-yl)pyridin-3-yl)pyrazolo[1,5-a]pyrimidine-3-carboxamide]	10 to 1000	–
CN(C)CCOc1cc(C(F)(F)F)ncc1NC(=O)c1c(N)nn2cc(Cl)cnc12 [I-O-71, 2-amino-6-chloro-N-(4-(2-(dimethylamino)ethoxy)-6-(trifluoromethyl)pyridin-3-yl)pyrazolo[1,5-a]pyrimidine-3-carboxamide]	10 to 1000	–
